The record followed here is ChEMBL document CHEMBL4765358, “Discovery of highly potent and selective antiparasitic new oxadiazole and hydroxy-oxindole small molecule hybrids” (Eur J Med Chem, 2020).

In data set [1] the test system is Trypanosoma cruzi. Briefly: Antitrypanosomal activity against Trypanosoma cruzi (MHOM/CH/00/Tulahuen C2, lacZ) amastigotes infected in HFF-1 cells assessed as reduction in parasite growth incubated for 120 hrs by CPRG/Igepal substrate based photometric method. The data set is classed as functional, organism-based. As to conditions: MHOM/CH/00/Tulahuen C2, HFF-1, 120 h.

The nature of data set [2]: Cytotoxicity against human HFF-1 cells assessed as reduction in cell viability incubated for 120 hrs by MTS assay. The data set is classed as cell-based. In general terms: Formazan colour is commonly taken as a measure of viable cells.
Data set [3] relates to Leishmania infantum. The experiment in a line: Antileishmanial activity against Leishmania infantum MHOM/MA/67/ITMAP-263 infected in THP1 cells assessed as reduction in parasite growth incubated for 120 hrs by Giemsa staining based inverted microscopic analysis. The data set is classed as functional, organism-based. As to conditions: MHOM/MA/67/ITMAP-263, THP-1, 120 h.
Data set [4] in a line: Cytotoxicity against human HepG2 cells assessed as reduction in cell viability incubated for 120 hrs by MTS assay. The class given is cell-based.

A value given as a limit tells only on which side of the number the result lay.

As usually defined, the IC50 is the concentration that gives 50% inhibition. In general, CC50 refers to the concentration that lowers cell viability or growth by half. As to `C=Cc1nc(-c2ccc([N+](=O)[O-])cc2)no1`, the IC50 in data set [1] was greater than 64 µM; in data set [3], 12.2 µM. The CC50 at 120 h in data set [2] was greater than 64 µM; in data set [4] it was 26.9 µM.

`C=C(c1nc(-c2ccccc2)no1)C(O)c1ccc(OC)cc1` (centres undefined): the IC50 is 81.3 µM in data set [1] and 18 µM in data set [3]. Moreover, the figures for the CC50 at 120 h in data set [2] and in data set [4] were greater than 64 µM and 33.6 µM, respectively.

For the compound `C=C(c1nc(-c2ccccc2)no1)C(O)c1cc2c(cc1Br)OCO2` (centres undefined), the IC50 in data set [1] was found to be 17.6 µM; in data set [3], 8.93 µM. Also, the results for the cytotoxic concentration (CC50) at 120 h in data set [2] and in data set [4] were greater than 64 µM and 58.5 µM, respectively.

As for `C=C(c1nc(-c2ccccc2)no1)C(O)c1ccccc1Cl` (centres undefined), the IC50 in data set [1] was 25.7 µM; in data set [3], 17.6 µM. Moreover, the values for the CC50 at 120 h in data set [2] and in data set [4] were greater than 64 µM and 59.2 µM, respectively.

As for `C=C(c1nc(-c2ccccc2)no1)C(O)c1ccc(Cl)cc1` (centres undefined), the IC50 in data set [1] came to 57.5 µM; in data set [3], 6.92 µM. For the same compound, the CC50 at 120 h is greater than 64 µM in data set [2] and 10.1 µM in data set [4].

On to `C=C(c1nc(-c2ccccc2)no1)C(O)c1ccc(Cl)c(F)c1` (centres undefined), for which the IC50 was found to be 27 µM in data set [1] and 18.9 µM in data set [3]. The CC50 at 120 h in data set [2] was greater than 64 µM; in data set [4], 27.8 µM.

As to `C=C(c1nc(-c2ccc([N+](=O)[O-])cc2)no1)C1(O)C(=O)N(CC)c2ccccc21` (centres undefined), the IC50 in data set [3] was 3.33 µM. In addition, in data set [4], the CC50 at 120 h was determined as 10.9 µM.

For `C=C(c1nc(-c2ccccc2)no1)C(O)c1ccc([N+](=O)[O-])cc1` (centres undefined), the IC50 in data set [1] is 7.8 µM; in data set [3], 10.4 µM. Moreover, the CC50 at 120 h in data set [2] was greater than 64 µM; in data set [4], 14.2 µM.

With `C=Cc1nc(-c2ccccc2)no1`, the IC50 in data set [1] was 37.2 µM; in data set [3], greater than 64 µM. Also, the CC50 at 120 h in data set [2] and in data set [4] was greater than 64 µM in each case.

On to `C=C(c1nc(-c2ccccc2)no1)C(O)c1cccc(F)c1` (centres undefined), for which the IC50 in data set [1] was greater than 100 µM; in data set [3] it was 7.29 µM. Further, the figures for the CC50 at 120 h in data set [2] and in data set [4] were greater than 64 µM and 14.1 µM, respectively.

For the compound `C=Cc1nc(-c2ccc(OC)cc2)no1`, the IC50 worked out at 15.6 µM in data set [1] and 25.2 µM in data set [3]. Also, the CC50 at 120 h in data set [2] was greater than 64 µM; in data set [4], 58 µM.

In the case of `C=C(c1nc(-c2cc(OC)c(OC)c(OC)c2)no1)C(O)c1ccccc1` (centres undefined), the IC50 in data set [1] was greater than 100 µM; in data set [3] it was 12 µM. The figures for the CC50 at 120 h in data set [2] and in data set [4] were greater than 64 µM and 27.4 µM, respectively.

On to `C=C(c1nc(-c2ccccc2)no1)C(O)c1cc(F)cc(F)c1` (centres undefined), for which the IC50 was greater than 100 µM in data set [1] and 5.12 µM in data set [3]. For the same compound, the values for the CC50 at 120 h in data set [2] and in data set [4] were greater than 64 µM and 7.92 µM, respectively.

Regarding `C=C(c1nc(-c2ccccc2)no1)C(O)c1ccc(C#N)cc1` (centres undefined), the IC50 in data set [1] was greater than 100 µM; in data set [3], 21.7 µM. Further, the CC50 at 120 h in data set [2] is greater than 64 µM; in data set [4], 32 µM.

For `C=C(c1nc(-c2ccccc2)no1)C(O)c1ccccc1` (centres undefined), the IC50 in data set [1] was found to be 8.2 µM; in data set [3], 9.81 µM. Besides, the CC50 at 120 h in data set [2] was greater than 64 µM; in data set [4], 27.2 µM.

Consider `C=C(c1nc(-c2ccccc2)no1)C(O)c1ccccc1[N+](=O)[O-]` (centres undefined), for which the IC50 in data set [1] is 58.4 µM; in data set [3], 10.3 µM. Also, the CC50 at 120 h in data set [2] was greater than 64 µM; in data set [4], 14 µM.

For the compound `C=C(c1nc(-c2ccccc2)no1)C(O)c1ccc(Br)cc1` (centres undefined), the IC50 in data set [1] came out at 36.5 µM; in data set [3], 43.9 µM. In addition, the CC50 at 120 h in data set [2] is greater than 64 µM; in data set [4] it was 41.1 µM.

Regarding `COc1cccc2c1C(=O)c1c(O)c3c(c(O)c1C2=O)C[C@@](O)(C(=O)CO)C[C@@H]3O[C@H]1C[C@H](N)[C@H](O)[C@H](C)O1` [DOXORUBICIN], the CC50 at 120 h in data set [2] was 0.53 µM; in data set [4], 0.77 µM.

Take `CCCCCCCCCCCCCCCCOP(=O)([O-])OCC[N+](C)(C)C` [MILTEFOSINE]: the IC50 in data set [3] is 2.3 µM.
